Experimental data as given in patent publication US10555959B2, “Glycolipids as treatment for disease” (La Jolla Pharmaceutical Company, priority 2009, dated 2020).

Assays:
SUR-1−/− Mice = conditions: cited from earlier work
[1] = tested on: C57B1/6 mice treated with MPTP; test: Animal model of Parkinson's and atypical Parkinson's disease (MPTP); assay type: in vivo, mouse; conditions: daily administration for three weeks
Protocol: C57B1/6 mice 7-8 weeks of age can be treated with MPTP (b.i.d., 20 mg/kg, s.c.). The mice also receive a daily administration of saline, compound of formula (1), (2), (3), (4), (5), (6), (7), (8), (9) or (10) (1, 10 and 30 mg/kg, o.s.) or (0.3. to 3 mg/kg, i.p. or s.c.) for three weeks starting 24 h after the last MPTP injection. The brains are removed and analyzed for striatum and substantia nigra pars compacta dopamine levels. The midbrain is fixed for TH immunohistochemistry and dopamine neuron cell counts.

mouse cortical cells = test: Protection of cortical cells from apoptosis (hydrogen peroxide, MTT assay); assay type: cell-based; conditions: approx. 0.1 μM; 50 μM hydrogen peroxide; cell death by MTT assay
Protocol: To induce apoptosis, mouse cortical cells were cultured and treated with 50 μM hydrogen peroxide for three hours prior to being treated with the ganglioside analogue.
The cells were also treated with the hydrogen peroxide during treatment with the ganglioside analogue and post-treatment for 48 h. Cell death was assayed using the MTT assay.

melanoma = conditions: cited from earlier work
KATP channels = conditions: in vitro; by activation of the KATP channels; ceramide fatty acid of C16:0; cited from earlier work
human adippose tissue = conditions: human adipose tissue, in vitro; cited from earlier work

Exendin-(9-39)
fasting blood glucose levels (SUR-1−/− Mice): Significantly Raises

Gal3GalNAc4(Neu5Ac3)Gal4GlcCer [GM1]
striatal dopamine levels [1]: increase striatal dopamine levels to approximately the same extent
protection of the cells from apoptosis (mouse cortical cells): approximately 20%

Gal3GalNAc4(Neu5Ac8Neu5Ac3)Gal4GlcCer [GD1b]
growth of melanoma (melanoma): suppress

Neu5Ac3Gal3GalNAc4(Neu5Ac8Neu5Ac3)Gal4GlcCer [GT1b]
growth of melanoma (melanoma): suppress

Neu5Ac8Neu5Ac3Gal3GalNAc4(Neu5Ac8Neu5c3)Gal4GlcCer [GQ1b]
growth of melanoma (melanoma): suppress

sulfatide
glucose stimulation of insulin secretion (KATP channels): inhibited
expression of adiponectin (human adippose tissue): increased
levels of IL-6 (human adippose tissue): decreasing
levels of IL-8 (human adippose tissue): decreasing
levels of TNF-alpha (human adippose tissue): decreasing
